Source: patent publication US20260015358A1, “BICYCLIC DERIVATIVES, COMPOSITIONS AND USES THEREOF” (Danatlas Pharmaceuticals Co., Ltd., priority 2023, published 2026)

Key:
[1] = biological target: T1, WRN [UniPro: Q14191 (WRN_HUMAN), N500-C946] (Homo sapiens (Human), UniProt Q14191); experiment: WRN ATPase assay (ADP-Glo); format: biochemical; settings: WRN enzymatic activity assay
[2] = biological target: T1, WRN [UniPro: Q14191 (WRN_HUMAN), N500-C946]; experiment: WRN unwinding assay (FORKF DNA, fluorescence); format: biochemical; settings: Table 14

T1 sequence (Q14191 500-946): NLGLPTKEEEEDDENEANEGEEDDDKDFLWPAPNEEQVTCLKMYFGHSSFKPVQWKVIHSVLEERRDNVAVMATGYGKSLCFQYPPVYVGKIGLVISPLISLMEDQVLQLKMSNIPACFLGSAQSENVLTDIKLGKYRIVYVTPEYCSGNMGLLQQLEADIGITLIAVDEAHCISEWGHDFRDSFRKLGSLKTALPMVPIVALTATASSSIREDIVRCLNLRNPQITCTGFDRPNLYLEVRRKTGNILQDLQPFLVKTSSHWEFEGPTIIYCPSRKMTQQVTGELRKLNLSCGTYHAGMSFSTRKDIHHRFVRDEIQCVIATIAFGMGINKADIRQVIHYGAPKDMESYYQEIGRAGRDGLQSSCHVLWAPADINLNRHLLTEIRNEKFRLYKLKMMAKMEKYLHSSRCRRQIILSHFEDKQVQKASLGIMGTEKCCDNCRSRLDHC

| IC50 [1] [nM] | IC50 [2] [nM] | SMILES |
| --- | --- | --- |
| < 100 | < 100 | CCc1c(N2CCN(C(=O)CNC(=O)c3ccccc3Cl)CC2)c(=O)n2nc(C3=CCOCC3)nc2n1CC(=O)Nc1ccc(C(F)(F)F)cc1Cl [Example 111, 2-Chloro-N-(2-(4-(4-(2-((2-chloro-4-(trifluoromethyl)phenyl)amino)-2-oxoethyl)-2-(3,6-dihydro-2H-pyran-4-yl)-5-ethyl-7-oxo-4,7-dihydro-[1,2,4]triazolo[1,5-a]pyrimidin-6-yl)piperazin-1-yl)-2-oxoethyl)benzamide] |
| < 100 | < 100 | CCc1c(N2CCN(C(=O)CNC(=O)c3ccccc3Br)CC2)c(=O)n2nc(C3=CCOCC3)nc2n1CC(=O)Nc1ccc(C(F)(F)F)cc1Cl [Example 113, 2-Bromo-N-(2-(4-(4-(2-((2-chloro-4-(trifluoromethyl)phenyl)amino)-2-oxoethyl)-2-(3,6-dihydro-2H-pyran-4-yl)-5-ethyl-7-oxo-4,7-dihydro-[1,2,4]triazolo[1,5-a]pyrimidin-6-yl)piperazin-1-yl)-2-oxoethyl)benzamide] |
| < 100 | < 100 | CCc1c(N2CCN(C(=O)CNC(=O)c3ccnn3C)CC2)c(=O)n2nc(C3=CCOCC3)nc2n1CC(=O)Nc1ccc(C(F)(F)F)cc1Cl [Example 114, N-(2-(4-(4-(2-((2-Chloro-4-(trifluoromethyl)phenyl)amino)-2-oxoethyl)-2-(3,6-dihydro-2H-pyran-4-yl)-5-ethyl-7-oxo-4,7-dihydro-[1,2,4]triazolo[1,5-a]pyrimidin-6-yl)piperazin-1-yl)-2-oxoethyl)-1-methyl-1H-pyrazole-5-carboxamide] |
| < 100 | < 100 | CCc1c(N2CCN(C(=O)CNC(=O)c3cccc(F)c3F)CC2)c(=O)n2nc(C3=CCOCC3)nc2n1CC(=O)Nc1ccc(C(F)(F)F)cc1Cl [Example 116, N-(2-(4-(4-(2-((2-Chloro-4-(trifluoromethyl)phenyl)amino)-2-oxoethyl)-2-(3,6-dihydro-2H-pyran-4-yl)-5-ethyl-7-oxo-4,7-dihydro-[1,2,4]triazolo[1,5-a]pyrimidin-6-yl)piperazin-1-yl)-2-oxoethyl)-2,3-difluorobenzamide] |
| < 100 | < 100 | CCc1c(N2CCN(C(=O)CNC(=O)c3cc(F)ccc3F)CC2)c(=O)n2nc(C3=CCOCC3)nc2n1CC(=O)Nc1ccc(C(F)(F)F)cc1Cl [Example 118, N-(2-(4-(4-(2-((2-Chloro-4-(trifluoromethyl)phenyl)amino)-2-oxoethyl)-2-(3,6-dihydro-2H-pyran-4-yl)-5-ethyl-7-oxo-4,7-dihydro-[1,2,4]triazolo[1,5-a]pyrimidin-6-yl)piperazin-1-yl)-2-oxoethyl)-2,5-difluorobenzamide] |
| < 100 | < 100 | CCc1c(N2CCN(C(=O)CNC(=O)c3ccc(OC)cc3)CC2)c(=O)n2nc(C3=CCOCC3)nc2n1CC(=O)Nc1ccc(C(F)(F)F)cc1Cl [Example 119, N-(2-(4-(4-(2-((2-Chloro-4-(trifluoromethyl)phenyl)amino)-2-oxoethyl)-2-(3,6-dihydro-2H-pyran-4-yl)-5-ethyl-7-oxo-4,7-dihydro-[1,2,4]triazolo[1,5-a]pyrimidin-6-yl)piperazin-1-yl)-2-oxoethyl)-4-methoxybenzamide] |
| < 100 | < 100 | CCc1c(N2CCN(C(=O)CNC(=O)c3c[nH]cn3)CC2)c(=O)n2nc(C3=CCOCC3)nc2n1CC(=O)Nc1ccc(C(F)(F)F)cc1Cl [Example 121, N-(2-(4-(4-(2-((2-Chloro-4-(trifluoromethyl)phenyl)amino)-2-oxoethyl)-2-(3,6-dihydro-2H-pyran-4-yl)-5-ethyl-7-oxo-4,7-dihydro-[1,2,4]triazolo[1,5-a]pyrimidin-6-yl)piperazin-1-yl)-2-oxoethyl)-1H-imidazole-4-carboxamide] |
| < 100 | < 100 | CCc1c(N2CCN(C(=O)CNC(=O)c3ncco3)CC2)c(=O)n2nc(C3=CCOCC3)nc2n1CC(=O)Nc1ccc(C(F)(F)F)cc1Cl [Example 123, N-(2-(4-(4-(2-((2-Chloro-4-(trifluoromethyl)phenyl)amino)-2-oxoethyl)-2-(3,6-dihydro-2H-pyran-4-yl)-5-ethyl-7-oxo-4,7-dihydro-[1,2,4]triazolo[1,5-a]pyrimidin-6-yl)piperazin-1-yl)-2-oxoethyl)oxazole-2-carboxamide] |
| < 100 | < 100 | CCc1c(N2CCN(C(=O)CNC(=O)c3c(F)cccc3F)CC2)c(=O)n2nc(C3=CCOCC3)nc2n1CC(=O)Nc1ccc(C(F)(F)F)cc1Cl [Example 124, N-(2-(4-(4-(2-((2-Chloro-4-(trifluoromethyl)phenyl)amino)-2-oxoethyl)-2-(3,6-dihydro-2H-pyran-4-yl)-5-ethyl-7-oxo-4,7-dihydro-[1,2,4]triazolo[1,5-a]pyrimidin-6-yl)piperazin-1-yl)-2-oxoethyl)-2,6-difluorobenzamide] |

The remaining lines, values behind:

| SMILES | IC50 [1] [nM] | IC50 [2] [nM] |
| --- | --- | --- |
| CCc1c(N2CCN(C(=O)CNC(=O)c3c[nH][nH]c3=O)CC2)c(=O)n2nc(C3=CCOCC3)nc2n1CC(=O)Nc1ccc(C(F)(F)F)cc1Cl [Example 108, N-(2-(4-(4-(2-((2-Chloro-4-(trifluoromethyl)phenyl)amino)-2-oxoethyl)-2-(3,6-dihydro-2H-pyran-4-yl)-5-ethyl-7-oxo-4,7-dihydro-[1,2,4]triazolo[1,5-a]pyrimidin-6-yl)piperazin-1-yl)-2-oxoethyl)-3-oxo-2,3-dihydro-1H-pyrazole-4-carboxamide] | < 100 | < 100 |
| CCc1c(N2CCN(C(=O)CNC(=O)c3cnn4cccc4c3O)CC2)c(=O)n2nc(C3=CCOCC3)nc2n1CC(=O)Nc1ccc(C(F)(F)F)cc1Cl [Example 109, N-(2-(4-(4-(2-((2-Chloro-4-(trifluoromethyl)phenyl)amino)-2-oxoethyl)-2-(3,6-dihydro-2H-pyran-4-yl)-5-ethyl-7-oxo-4,7-dihydro-[1,2,4]triazolo[1,5-a]pyrimidin-6-yl)piperazin-1-yl)-2-oxoethyl)-4-hydroxypyrrolo[1,2-b]pyridazine-3-carboxamide] | < 100 | < 100 |
| CCc1c(N2CCN(C(=O)CNC(=O)c3cccnc3)CC2)c(=O)n2nc(C3=CCOCC3)nc2n1CC(=O)Nc1ccc(C(F)(F)F)cc1Cl [Example 110, N-(2-(4-(4-(2-((2-Chloro-4-(trifluoromethyl)phenyl)amino)-2-oxoethyl)-2-(3,6-dihydro-2H-pyran-4-yl)-5-ethyl-7-oxo-4,7-dihydro-[1,2,4]triazolo[1,5-a]pyrimidin-6-yl)piperazin-1-yl)-2-oxoethyl)nicotinamide] | < 100 | < 100 |
| CCc1c(N2CCN(C(=O)CNC(=O)c3ccccc3OC)CC2)c(=O)n2nc(C3=CCOCC3)nc2n1CC(=O)Nc1ccc(C(F)(F)F)cc1Cl [Example 112, N-(2-(4-(4-(2-((2-Chloro-4-(trifluoromethyl)phenyl)amino)-2-oxoethyl)-2-(3,6-dihydro-2H-pyran-4-yl)-5-ethyl-7-oxo-4,7-dihydro-[1,2,4]triazolo[1,5-a]pyrimidin-6-yl)piperazin-1-yl)-2-oxoethyl)-2-methoxybenzamide] | < 100 | < 100 |
| CCc1c(N2CCN(C(=O)CNC(=O)c3cc(F)cc(F)c3)CC2)c(=O)n2nc(C3=CCOCC3)nc2n1CC(=O)Nc1ccc(C(F)(F)F)cc1Cl [Example 115, N-(2-(4-(4-(2-((2-Chloro-4-(trifluoromethyl)phenyl)amino)-2-oxoethyl)-2-(3,6-dihydro-2H-pyran-4-yl)-5-ethyl-7-oxo-4,7-dihydro-[1,2,4]triazolo[1,5-a]pyrimidin-6-yl)piperazin-1-yl)-2-oxoethyl)-3,5-difluorobenzamide] | < 100 | < 100 |
| CCc1c(N2CCN(C(=O)CNC(=O)c3ccc(F)cc3F)CC2)c(=O)n2nc(C3=CCOCC3)nc2n1CC(=O)Nc1ccc(C(F)(F)F)cc1Cl [Example 117, N-(2-(4-(4-(2-((2-Chloro-4-(trifluoromethyl)phenyl)amino)-2-oxoethyl)-2-(3,6-dihydro-2H-pyran-4-yl)-5-ethyl-7-oxo-4,7-dihydro-[1,2,4]triazolo[1,5-a]pyrimidin-6-yl)piperazin-1-yl)-2-oxoethyl)-2,4-difluorobenzamide] | < 100 | < 100 |
| CCc1c(N2CCN(C(=O)CNC(=O)c3cnc4c(ccn4C)c3O)CC2)c(=O)n2nc(C3=CCOCC3)nc2n1CC(=O)Nc1ccc(C(F)(F)F)cc1Cl [Example 120, N-(2-(4-(4-(2-((2-Chloro-4-(trifluoromethyl)phenyl)amino)-2-oxoethyl)-2-(3,6-dihydro-2H-pyran-4-yl)-5-ethyl-7-oxo-4,7-dihydro-[1,2,4]triazolo[1,5-a]pyrimidin-6-yl)piperazin-1-yl)-2-oxoethyl)-4-hydroxy-1-methyl-1H-pyrrolo[2,3-b]pyridine-5-carboxamide] | 100 to 1000 | < 100 |
| CCc1c(N2CCN(C(=O)CNC(=O)c3cc(C)ns3)CC2)c(=O)n2nc(C3=CCOCC3)nc2n1CC(=O)Nc1ccc(C(F)(F)F)cc1Cl [Example 122, N-(2-(4-(4-(2-((2-Chloro-4-(trifluoromethyl)phenyl)amino)-2-oxoethyl)-2-(3,6-dihydro-2H-pyran-4-yl)-5-ethyl-7-oxo-4,7-dihydro-[1,2,4]triazolo[1,5-a]pyrimidin-6-yl)piperazin-1-yl)-2-oxoethyl)-3-methylisothiazole-5-carboxamide] | < 100 | < 100 |
| CCc1c(N2CCN(C(=O)CNC(=O)c3c(Cl)cccc3Cl)CC2)c(=O)n2nc(C3=CCOCC3)nc2n1CC(=O)Nc1ccc(C(F)(F)F)cc1Cl [Example 125, 2,6-Dichloro-N-(2-(4-(4-(2-((2-chloro-4-(trifluoromethyl)phenyl)amino)-2-oxoethyl)-2-(3,6-dihydro-2H-pyran-4-yl)-5-ethyl-7-oxo-4,7-dihydro-[1,2,4]triazolo[1,5-a]pyrimidin-6-yl)piperazin-1-yl)-2-oxoethyl)benzamide] | 100 to 1000 | < 100 |
